Measurements published in the supplement of paper PMC8443649.

System: PATU8988T-SmBKRAS-LgBCRAF
Assay: KRAS:CRAF interaction luminescence (EndoBind) relative to DMSO control (fold of DMSO); higher = more KRAS-CRAF complex
Method: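 EndoBind assay: PATU8988T cells with CRISPR knock-in SmB-KRAS(G12V) and LgB-CRAF, seeded with RealTime-Glo pro-substrate (1:2000) in 384-well plates. Cells were treated with RAF inhibitors (GDC0879, LY3009120, NVP-LHS533) or the MEK inhibitor Selumetinib, and the same plate was read for split-NanoLuc luminescence at several time points. Signal is normalised to the DMSO-treated wells at each time point; n=3 wells.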

Cn1cnc2c(F)c(Nc3ccc(Br)cc3Cl)c(C(=O)NOCCO)cc21 [Selumetinib]
KRAS:CRAF interaction luminescence
Conditions	time after treatment 0 h	time after treatment 1 h	time after treatment 4 h	time after treatment 6 h	time after treatment 9 h	time after treatment 12 h
0.00375 µM	0.968	0.983	0.958	0.954	0.937	0.963
0.0075 µM	0.975	0.977	0.949	0.931	0.943	0.974
0.015 µM	1.01	0.979	0.958	0.953	0.939	0.934
0.03 µM	0.961	0.971	0.973	0.97	0.956	0.965
0.06 µM	0.995	0.976	0.976	0.935	0.945	0.984
0.12 µM	0.994	0.979	0.974	0.975	0.948	0.973
0.24 µM	0.994	0.993	0.988	0.975	0.96	0.963
0.46875 µM	1	0.995	1	0.985	0.982	0.992
0.9375 µM	1.01	1.04	1.02	1.03	0.994	1.01
1.875 µM	0.978	1.07	1.06	1.06	1.04	1.06
3.75 µM	0.99	1.14	1.12	1.1	1.1	1.11
7.5 µM	1.01	1.02	1	0.995	0.981	0.998
15 µM	1.02	1.02	1	0.983	0.974	0.987
30 µM	–	–	0.953	–	–	–

OCCn1cc(-c2ccc3c(c2)CC/C3=N\O)c(-c2ccncc2)n1 [GDC0879]
KRAS:CRAF interaction luminescence
Conditions	time after treatment 0 h	time after treatment 1 h	time after treatment 4 h	time after treatment 6 h	time after treatment 9 h	time after treatment 12 h
0.00375 µM	0.967	0.989	0.964	0.967	0.958	0.9832
0.0075 µM	1.03	1.03	0.976	0.964	0.958	0.982
0.015 µM	0.987	1.03	0.985	0.966	0.953	0.969
0.03 µM	0.989	1.1	1.03	1.03	1.01	1.01
0.06 µM	0.977	1.22	1.1	1.09	1.07	1.08
0.12 µM	0.964	1.27	1.19	1.18	1.14	1.16
0.24 µM	0.983	1.4	1.4	1.38	1.36	1.36
0.46875 µM	1.01	1.5	1.62	1.61	1.58	1.59
0.9375 µM	1.01	1.53	1.75	1.81	1.74	1.78
1.875 µM	1.03	1.56	1.83	1.92	1.87	1.86
3.75 µM	1.03	1.54	1.85	1.93	1.9	1.99
7.5 µM	1.05	1.54	1.87	1.98	1.95	2.05
15 µM	1.02	1.46	1.8	1.99	2.03	2.15
30 µM	–	–	1.66	–	–	–

CNc1ncc2cc(-c3cc(NC(=O)NCCC(C)(C)C)c(F)cc3C)c(C)nc2n1
KRAS:CRAF interaction luminescence
Conditions	time after treatment 0 h	time after treatment 1 h	time after treatment 4 h	time after treatment 6 h	time after treatment 9 h	time after treatment 12 h
0.00375 µM	0.987	0.979	1.01	1.05	1.09	1.15
0.0075 µM	0.976	0.98	1.04	1.1	1.15	1.24
0.015 µM	0.996	0.98	1.07	1.16	1.22	1.32
0.03 µM	0.983	0.968	1.14	1.24	1.35	1.45
0.06 µM	1	0.994	1.21	1.34	1.46	1.58
0.12 µM	1	0.996	1.26	1.42	1.58	1.7
0.24 µM	0.955	0.991	1.35	1.57	1.76	1.96
0.46875 µM	0.987	1.03	1.42	1.67	1.84	2.05
0.9375 µM	0.982	1.06	1.51	1.75	1.91	2.07
1.875 µM	1	1.09	1.54	1.8	1.91	2.07
3.75 µM	0.971	1.08	1.59	1.77	1.89	2.04
7.5 µM	1.03	1.16	1.57	1.74	1.8	1.92
15 µM	1.03	1.14	1.47	1.59	1.62	1.78
30 µM	–	–	1.13	–	–	–
